For one data set, the target named is T1, HPK1 kinase (Homo sapiens, UniProt Q92918).
T1 construct: purchased Carna 07-410
T1 sequence (Q92918 1-346 limits assumed): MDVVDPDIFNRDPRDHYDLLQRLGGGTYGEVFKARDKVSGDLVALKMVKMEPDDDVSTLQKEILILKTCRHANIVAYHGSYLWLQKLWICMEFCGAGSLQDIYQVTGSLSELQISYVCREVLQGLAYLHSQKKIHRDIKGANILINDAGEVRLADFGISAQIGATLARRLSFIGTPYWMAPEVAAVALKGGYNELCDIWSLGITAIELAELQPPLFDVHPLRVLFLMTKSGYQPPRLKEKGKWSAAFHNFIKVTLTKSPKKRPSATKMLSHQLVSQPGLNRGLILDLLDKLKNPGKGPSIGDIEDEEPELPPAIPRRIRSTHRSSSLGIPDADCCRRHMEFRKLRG
Briefly: HPK1 kinase assay (1 mM ATP). It counts as biochemical. How it is done:
Test example 5: HPK1 kinase assay (1 mM ATP)
The kinase HPK1 (Carna, Cat.No 07-410) was prepared into 2× kinase solution using 1× kinase buffer. The substrate Fluorescein-PKC (Invitrogen, Cat. No. PV3506) and ATP (working concentration: 1 mM) (Sigma, Cat. No. 2383-5G) were prepared into 2× substrate solution using 1×kinase buffer. The detection reagent was diluted to 2-fold the final concentration using an antibody diluent. 100 nL of compounds at different concentrations and 5 µL of kinase solution were added to each well of a 384-well plate, and the mixture was incubated at room temperature for 10 minutes. After the incubation was completed, 5 µL of substrate solution was added to each well, and the resulting mixture was reacted at room temperature for 90 minutes. After the reaction was completed, 10 µL of detection reagent was added to each well to terminate the reaction, and the mixture was incubated at room temperature for 60 minutes. Fluorescence readings were detected using an Envision instrument with excitation at 320 nm and emission at 520 nm and 495 nm. IC50 value was calculated using XLFit excel add-in version 5.4.0.8 software. The calculation formula of the inhibition rate was shown in formula 5-1, wherein max is the Ratio of the DMSO control, min is the Ratio of the negative control without enzyme, and sample is the Ratio of the compound. Ratio = RFU520nm /RFU495nm [formula] Inhibition% = (max−sample)/(max−min) × 100% [formula] Table 5-1 Inhibitory activity of test compounds against HPK1 kinase

In data set [1] the test system is IL-2 secretion by T cells. Briefly: IL-2 detection assay in cells (ELISA, pan-T cells isolated from PBMCs). The following applies: IL-2, CD3 antibody-coated plate, 24 hours; 100 nM. It counts as cell-based. How it is done:
9. IL-2 detection assay in cells
Activating effect of compounds on IL-2 secretion by T cells was evaluated using the ELISA method. Frozen PBMCs were thawed, and pan-T cells were isolated and purified using a T cell sorting kit (Stemcell, 17951). The cells were resuspended in 1640 complete medium and incubated in a 37°C&5%CO2 incubator overnight. A 96-well plate coated with an anti-human CD3 antibody (Thermo, 16-0037-38) at a final concentration of 5 µg/mL was incubated at 37°C for 2 h. The overnight-cultured cells were collected by centrifugation, the supernatant was discarded, and the cells were resuspended in 1640 complete medium, and seeded in the CD3 antibody-coated 96-well plate at a density of 10^5cells/well. The compounds at different concentrations were added, and the mixture was incubated in a 37°C&5%CO2 incubator for 24 hours. After the incubation was completed, the resulting mixture was centrifuged at 1000 rpm for 1 minute to collect the supernatant, and IL-2 was detected according to the ELISA instructions. DMSO without compounds was used as the control group to calculate the activation rate of the compounds, and prism was used to fit the activation curve. Maximum activation fold = maximum activation rate/control group. Table 9-1 Results of IL-2 activation by test compounds
For orientation: In an ELISA, binding on a coated surface is turned into a signal by an enzyme label.

In a further data set the target is T2, HPK1 protein (Homo sapiens, UniProt Q92918).
T2 construct: host or cells: Jurkat cells
Kind of data set: Detection of HPK1 protein expression level in Jurkat cells (24 h). It counts as cell-based. The following applies: 24 hours incubation. How it is done:
Test example 4: Detection of HPK1 protein expression level in Jurkat cells (24 h)
Jurkat cells from ATCC were placed in a RPMI-1640 complete medium (supplemented with 10% FBS and 1% penicillin-streptomycin solution) and cultured at 37°C and 5% CO2. The cells in the logarithmic growth phase were collected, the cell density was adjusted to 5 × 10^5 cells/well with the culture medium, and the cells were added to a 6-well cell culture plate at a volume of 1 mL/well. The compound to be tested was prepared to 2-fold the final concentration, 1 mL of the compounds at different concentrations were added to administration wells, a medium containing 0.2% DMSO was added to control wells, and the plate was incubated at 37°C and 5% CO2 for 24 hours. The cells were collected into a 1.5 mL centrifuge tube, 30 µL of RIPA lysis buffer (containing 1X protease inhibitor cocktail) was added, and the cells were lysed on ice for 15 minutes and centrifuged at 12000 rpm/min at 4°C for 10 minutes. The supernatant was collected and the protein content was determined using the BCA method. The protein sample to be tested was diluted to 0.2 mg/mL, HPK1 was detected using a fully automated protein expression quantitative analyser (ProteinSimple), and the internal reference protein was β-actin (all antibodies were from CST). The software (Compass for SW) of the fully automated protein expression quantitative analyser was used to process the raw data and calculate the peak area after internal reference normalisation and the HPK1 degradation rate relative to the control group. The HPK1 degradation rate was calculated according to formula 4-1, where Aadministration well is the relative peak area of the administration group after internal reference normalisation, and Acontrol well is the relative peak area of the vehicle control group after internal reference normalisation. DC50 values were calculated using a four-parameter non-linear fitting model in Graphpad 8.3.0 software. HPK1_degradation % = 100−(Aadministration well/Acontrol well×100%) [formula] Table 4-1 Degradation activity of test compounds against HPK1 protein in Jurkat cells (24 h)

Data set [2] in a line: Pharmacokinetic test in rats. Type of data set: in vivo, SD rats. The settings on record: rat, plasma. How it is done: Test example 7: Pharmacokinetic test in rats
Experimental animals: Male SD rats, 180-200 g, purchased from Chengdu Dossy Experimental Animals Co., Ltd. with the laboratory animal production license number of SCXK (CHUAN) 2020-030.
Experimental design: on the day of the experiment, the SD rats were randomly grouped according to their body weights. The animals were fasted but with water available overnight before the administration, and fed 4 h after the administration.
Vehicle for intragastric administration: 5% Solutol+5% TPGS+30% PEG400+60% (20% SBE-β-CD)
Blood was taken from the orbits of the […] at specified time points, and placed in an EDTAK2 centrifuge tube. Centrifugation was performed at 5000 rpm for 10 min, and the plasma was collected.
Blood sampling time points for the intravenous administration group were: 0, 5 min, 15 min, 30 min, 1 h, 2 h, 4 h, 6 h, 8 h and 24 h; blood sampling time points for the intragastric administration group were: 0, 5 min, 15 min, 30 min, 1 h, 2 h, 4 h, 6 h, 8 h and 24 h. Before analysis and detection, all the samples were stored at - 60°C or lower. The samples were analysed quantitatively by LC-MS/MS. Table 7-1 PK data of test compound drug in rats

A short description of data set [3]: Pharmacokinetic test in mice. Type of data set: in vivo, ICR mice. The settings on record: mouse, plasma, po, i. g., 10 mg/kg. On the procedure: Test example 6: Pharmacokinetic test in mice
Experimental objective: In this experiment, a single dose of test substances was administered to ICR mice intravenously and intragastrically, the concentrations of the test compounds in plasma of mice were measured, and the pharmacokinetic characteristics and bioavailability of the test compounds in mice were evaluated.
Experimental animals: Male ICR mice, 20-35 g, purchased from Chengdu Dossy Experimental Animals Co., Ltd. (SCXK (CHUAN) 2020-030).
Experimental method: On the day of the experiment, the ICR mice were randomly grouped according to their body weights. The animals were fasted but with water available overnight before the administration, and fed 4 h after the administration.
Sampling: Blood was taken from the orbits of the mice at specified time points, and placed in an EDTAK2 centrifuge tube. Centrifugation was performed at 5000 rpm at 4°C for 10 min, and the plasma was collected.
Time points for plasma collection in G1 and G1-2 groups: 0, 5 min, 15 min, 30 min, 1 h, 2 h, 4 h, 7 h, and 24 h.
Time points for plasma collection in G2 and G2-2 groups: 0, 5 min, 15 min, 30 min, 1 h, 2 h, 4 h, 7 h, and 24 h.
Before analysis and detection, all the samples were stored at -60°C or lower. The samples were analysed quantitatively by LC-MS/MS. Table 6-1 PK data of test compound drug in mice

Where [4] appears, read: ATP working concentration: 1 mM, read-out: IC50.
Where [5] appears, read: ATP working concentration: 1 mM.

Where a name gives a salt, the structure may show the parent alone. Read-outs that look alike come from different tables or passages of the source.

T2 sequence (Q92918 whole entry): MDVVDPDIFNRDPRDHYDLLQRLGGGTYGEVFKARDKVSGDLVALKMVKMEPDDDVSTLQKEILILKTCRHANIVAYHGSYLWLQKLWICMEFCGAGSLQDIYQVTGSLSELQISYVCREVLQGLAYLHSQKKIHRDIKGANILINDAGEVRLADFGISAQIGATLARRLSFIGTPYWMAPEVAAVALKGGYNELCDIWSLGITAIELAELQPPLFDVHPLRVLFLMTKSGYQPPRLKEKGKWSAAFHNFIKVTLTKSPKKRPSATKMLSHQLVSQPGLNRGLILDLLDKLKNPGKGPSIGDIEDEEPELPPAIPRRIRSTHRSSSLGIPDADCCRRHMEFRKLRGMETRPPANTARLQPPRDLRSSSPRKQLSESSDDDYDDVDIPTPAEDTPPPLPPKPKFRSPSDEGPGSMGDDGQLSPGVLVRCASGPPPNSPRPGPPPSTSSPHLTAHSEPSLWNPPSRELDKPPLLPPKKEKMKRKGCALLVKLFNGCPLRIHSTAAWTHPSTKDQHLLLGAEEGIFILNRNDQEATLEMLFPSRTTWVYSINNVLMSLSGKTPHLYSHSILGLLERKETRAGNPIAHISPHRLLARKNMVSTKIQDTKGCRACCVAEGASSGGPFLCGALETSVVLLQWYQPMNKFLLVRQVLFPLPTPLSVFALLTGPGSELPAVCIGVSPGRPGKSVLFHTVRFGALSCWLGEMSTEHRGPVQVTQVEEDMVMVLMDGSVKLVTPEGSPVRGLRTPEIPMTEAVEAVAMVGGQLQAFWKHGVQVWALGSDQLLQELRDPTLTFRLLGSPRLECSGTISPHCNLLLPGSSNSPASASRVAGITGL

Regarding `O=C1CCC(c2ccc(N3CCN(CC4CCN(c5ccc(Nc6ccc(-c7cnc8cc(F)ccn78)c7c6C(=O)NC7)nc5)CC4)CC3)cc2F)C(=O)N1` (single isomer, unassigned) [Compound 1-1], at HPK1 kinase (setting [4]), the IC50 (usually the concentration at which inhibition is half-maximal) was less than 50 nM. Moreover, the “Activation fold at 100 nM concentration” value in data set [1] was greater than 10.

`CN(C)Cc1nc(Nc2ccc(-c3cnc4cc(F)ccn34)c3c2C(=O)NC3)ccc1C1CCN(CC2CCN(c3ccc(N4CCC(=O)NC4=O)c(F)c3)CC2)CC1` [Trifluoroacetic acid salt of compound 9] registered a concentration for half-maximal inhibition (IC50) at HPK1 kinase of less than 50 nM. Also, at HPK1 protein, the DC50 is less than 20 nM.

As for `O=C1CCN(c2cc3c(cc2F)N2CCN(C4CCN(c5ccc(Nc6ccc(-c7cnc8cc(F)ccn78)c7c6C(=O)NC7)nc5)CC4)C[C@@H]2CC3)C(=O)N1` [Trifluoroacetic acid salt of compound 13], on HPK1 kinase, the IC50 was less than 50 nM. The same molecule came in with a DC50 on HPK1 protein of less than 20 nM.

As for `O=C1CCN(c2cc3c(cc2F)N2CCN(C4CC5(CCN(c6ccc(Nc7ccc(-c8cnc9cc(F)ccn89)c8c7C(=O)NC8)nc6)CC5)C4)C[C@@H]2CC3)C(=O)N1` [Trifluoroacetic acid salt of compound 20], on HPK1 kinase, the IC50 is less than 50 nM. Moreover, the DC50 at HPK1 protein is less than 20 nM. In data set [2] (IV, 2.5 mg/kg), the clearance – broadly, the rate of elimination divided by the concentration – stood at 13.4 mL/min/kg and the half-life (in general, how long it takes for the measured level to halve) is 4.78 h. In addition, in data set [2] (po, i. g., 10 mg/kg), the AUC (as a rule, concentration integrated over time) was 5310 ng·h/mL; the Cmax (in general, the maximum level reached in the sampled fluid or tissue) was 382 ng/mL; the half-life was 5.29 h. In data set [3], the AUC was determined as 12600 ng·h/mL, the Cmax stood at 1010 ng/mL and the half-life was 5.51 h.

At HPK1 kinase, `O=C1CCN(c2cc3c(cc2F)N2CCN(C4CCN(c5ccc(Nc6ccc(-c7cnc8cc(F)ccn78)c7c6C(=O)NC7)nc5)CC4)C[C@H]2CC3)C(=O)N1` [Trifluoroacetic acid salt of compound 14] had an IC50 of less than 50 nM. For the same molecule, the DC50 on HPK1 protein was less than 20 nM.

Turning to `O=C1CCN(c2cc3c(cc2F)N2CCN(CC4CC5(CCN(c6ccc(Nc7ccc(-c8cnc9cc(F)ccn89)c8c7C(=O)NC8)nc6)CC5)C4)C[C@@H]2CC3)C(=O)N1` [Trifluoroacetic acid salt of compound 15], the IC50 against HPK1 kinase (setting [5]) was less than 50 nM. For the same molecule, the DC50 on HPK1 protein is less than 20 nM. Besides, in data set [3], the AUC stood at 23600 ng·h/mL, the Cmax was determined as 1620 ng/mL and the half-life was 7.64 h.

Take `O=C1CC[C@H](NC(=O)c2cc3c(cc2F)N2CCN(C4CCN(c5ccc(Nc6ccc(-c7cnc8cc(F)ccn78)c7c6C(=O)NC7)nc5)CC4)C[C@H]2CC3)C(=O)N1` [Trifluoroacetic acid salt of compound 42]: the IC50 at HPK1 kinase is less than 50 nM. Also, the DC50 at HPK1 protein is less than 20 nM.

At HPK1 kinase (setting [5]), `O=C1CC[C@H](NC(=O)c2cc3c(cc2F)N2CCN(C4CC5(CCN(c6ccc(Nc7ccc(-c8cnc9cc(F)ccn89)c8c7C(=O)NC8)nc6)CC5)C4)C[C@H]2CC3)C(=O)N1` [Trifluoroacetic acid salt of compound 37] came in with an IC50 of less than 50 nM. This molecule also gave a DC50 on HPK1 protein of less than 20 nM.

The molecule `O=C1CC[C@H](NC(=O)c2cc3c(cc2F)N2CCN(CC4CC5(CCN(c6ccc(Nc7ccc(-c8cnc9cc(F)ccn89)c8c7C(=O)NC8)nc6)CC5)C4)C[C@H]2CC3)C(=O)N1` [Trifluoroacetic acid salt of compound 36] came in with an IC50 at HPK1 kinase (setting [5]) of less than 50 nM. The same molecule displayed a DC50 at HPK1 protein of less than 20 nM.

At HPK1 kinase (setting [5]), `O=C1CC[C@H](NC(=O)c2cc3c(cc2F)N2CCN(CC4CCN(c5ccc(Nc6ccc(-c7cnc8cc(F)ccn78)c7c6C(=O)NC7)nc5)CC4)C[C@H]2CC3)C(=O)N1` [Trifluoroacetic acid salt of compound 8] registered an IC50 of less than 50 nM. At HPK1 protein, this molecule had a DC50 of less than 20 nM. Besides, in data set [3], the AUC stood at 18300 ng·h/mL, the Cmax came to 1460 ng/mL and the half-life was 4.38 h.

Turning to `O=C1CCN(c2cc3c(cc2F)N2CCN(CC4CC5(CCN(c6ccc(Nc7ccc(-c8cnc9cc(F)ccn89)c8c7C(=O)NC8)nc6)CC5)C4)C[C@H]2CC3)C(=O)N1` [Compound 16], at HPK1 kinase (setting [4]), the IC50 is less than 50 nM. The DC50 on HPK1 protein (read-out: DC50) is less than 20 nM.

As to `O=C1CC[C@H](NC(=O)c2cc3c(cc2F)N2CCN(CC4CC5(CCN(c6ccc(Nc7ccc(-c8cnc9cc(F)ccn89)c8c7C(=O)NC8)nc6)CC5)C4)C[C@@H]2CC3)C(=O)N1` [Trifluoroacetic acid salt of compound 34], at HPK1 kinase (setting [5]), the IC50 is less than 50 nM. For the same molecule, at HPK1 protein, the DC50 is less than 20 nM.

The values are drawn from patent EP4810494A1, “HPK1 DEGRADATION AGENT AND USE THEREOF IN FIELD OF MEDICINE” (Haisco Pharmaceutical Group Co., Ltd., priority 2023, dated 2025).
